Measured values from ChEMBL document CHEMBL1201862, “PubChem BioAssay data set” (2004).
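1) Cells in 96-well plates. 2) Compound, 48 h, 5 concentrations. 3) Linear interpolation between surrounding doses. 4) Unreached endpoint = highest concentration. At the GI50, growth is halved.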 Calls of active or inactive are those of the source. Cut-off read from the data, not from the text of the source: active = GI50 up to about 1.1 µM and inactive = higher.

Key:
Experiment in all cases: NCI anticancer screen, dose series, 48 h
EKVX = system: EKVX
UACC-257 = system: UACC-257
A549 = system: A549
SK-MEL-5 = system: SK-MEL-5
HOP-92 = system: HOP-92
HCC 2998 = system: HCC 2998
A498 = system: A498
HT-29 = system: HT-29
NCI-H23 = system: NCI-H23
M19-MEL = system: M19-MEL
OVCAR-8 = system: OVCAR-8
SW-620 = system: SW-620
LOX IMVI = system: LOX IMVI
RXF 393 = system: RXF 393
SNB-19 = system: SNB-19
MDA-N = system: MDA-N
BT-549 = system: BT-549
DU-145 = system: DU-145
T47D = system: T47D
PC-3 = system: PC-3

Measured: GI50

Cc1nc(-n2nc(-c3ccccc3)cc2-c2ccccc2)sc1C(=O)/C=C/c1ccc(Cl)cc1
inactive: EKVX 13.4 µM | UACC-257 20.1 µM | A549 19.5 µM | SK-MEL-5 13.2 µM | HOP-92 18.4 µM | HCC 2998 16.4 µM | A498 23.2 µM | HT-29 14.4 µM | NCI-H23 16.3 µM | M19-MEL 18.4 µM | OVCAR-8 24.8 µM | SW-620 21.5 µM | LOX IMVI 13.9 µM | RXF 393 12.7 µM

CCOC(=O)C(=O)C1C(=O)Nc2ccccc21 (stereo not given)
inactive: EKVX > 100 µM | UACC-257 > 100 µM | A549 > 100 µM | HOP-92 50.8 µM | HCC 2998 > 100 µM | A498 > 100 µM | HT-29 > 100 µM | NCI-H23 > 100 µM | M19-MEL > 100 µM | OVCAR-8 > 100 µM | SW-620 > 100 µM | SNB-19 > 100 µM | LOX IMVI > 100 µM | RXF 393 > 100 µM

O=C(c1ccc(O)c([N+](=O)[O-])c1)c1ccc(O)c([N+](=O)[O-])c1
inactive: MDA-N 53.7 µM | EKVX > 100 µM | UACC-257 81.7 µM | A549 89.9 µM | SK-MEL-5 > 100 µM | HOP-92 24 µM | HCC 2998 > 100 µM | A498 > 100 µM | HT-29 > 100 µM | NCI-H23 > 100 µM | BT-549 33 µM | OVCAR-8 > 100 µM | SW-620 55.6 µM | DU-145 > 100 µM | SNB-19 > 100 µM | T47D > 100 µM | LOX IMVI > 100 µM | PC-3 66.5 µM | RXF 393 > 100 µM

CCCCCC(=O)Nc1[nH]nnc1C(N)=O
inactive: MDA-N > 100 µM | EKVX > 100 µM | UACC-257 > 100 µM | A549 > 100 µM | SK-MEL-5 > 100 µM | HOP-92 92.5 µM | HCC 2998 > 100 µM | A498 > 100 µM | HT-29 > 100 µM | NCI-H23 > 100 µM | BT-549 > 100 µM | OVCAR-8 > 100 µM | SW-620 > 100 µM | DU-145 > 100 µM | SNB-19 > 100 µM | T47D > 100 µM | LOX IMVI > 100 µM | PC-3 > 100 µM | RXF 393 > 100 µM

C/C(=N\NC(=O)c1ccccc1O)C1=CNc2ccccc2S1
inactive: EKVX 15.3 µM | UACC-257 3.1 µM | A549 3.63 µM | SK-MEL-5 6.89 µM | HCC 2998 2.98 µM | A498 3.8 µM | HT-29 7.85 µM | NCI-H23 3.6 µM | M19-MEL 7.53 µM | OVCAR-8 3.7 µM | SW-620 3.65 µM | SNB-19 5.56 µM | LOX IMVI 3.3 µM

Cn1ncc(=S)[nH]c1=S
inactive: EKVX > 100 µM | A549 > 100 µM | HOP-92 > 100 µM | A498 > 100 µM | NCI-H23 > 100 µM | M19-MEL > 100 µM | OVCAR-8 > 100 µM | SW-620 > 100 µM | SNB-19 > 100 µM | LOX IMVI > 100 µM | RXF 393 > 100 µM

CN(C)C(=N)NC(N)=S
inactive: EKVX > 100 µM | UACC-257 > 100 µM | A549 > 100 µM | HOP-92 > 100 µM | HCC 2998 > 100 µM | A498 > 100 µM | HT-29 > 100 µM | NCI-H23 > 100 µM | M19-MEL > 100 µM | OVCAR-8 > 100 µM | SW-620 > 100 µM | SNB-19 > 100 µM | LOX IMVI > 100 µM | RXF 393 > 100 µM

COc1ccc(N2C(=O)c3c(c4[nH]c5ccccc5c4c4ccc(C(C)(C)C)cc34)C2=O)cc1
inactive: EKVX 64 µM | UACC-257 > 100 µM | A549 47.1 µM | SK-MEL-5 > 100 µM | HOP-92 14.7 µM | HCC 2998 > 100 µM | A498 40.5 µM | NCI-H23 20 µM | M19-MEL 50.9 µM | OVCAR-8 22.5 µM | SW-620 61.8 µM | SNB-19 54.2 µM | LOX IMVI > 100 µM | RXF 393 45.7 µM

Cc1ccc(S(=O)(=O)NNS(C)(=O)=O)cc1
inactive: EKVX > 100 µM | UACC-257 > 100 µM | A549 > 100 µM | SK-MEL-5 > 100 µM | HCC 2998 > 100 µM | HT-29 > 100 µM | NCI-H23 > 100 µM | M19-MEL > 100 µM | OVCAR-8 > 100 µM | SW-620 > 100 µM | SNB-19 > 100 µM | LOX IMVI > 100 µM | RXF 393 > 100 µM

CCOc1ccccc1NC(=O)CCc1n[nH]c(=S)o1
inactive: EKVX > 100 µM | UACC-257 > 100 µM | A549 > 100 µM | SK-MEL-5 > 100 µM | HOP-92 > 100 µM | HT-29 > 100 µM | NCI-H23 > 100 µM | M19-MEL > 100 µM | SW-620 > 100 µM | SNB-19 > 100 µM | LOX IMVI > 100 µM

O=c1[nH]c2c(nc1NC13CC4CC(CC(C4)C1)C3)c(=O)oc1ccccc12
inactive: EKVX > 100 µM | UACC-257 > 100 µM | A549 34 µM | SK-MEL-5 36.9 µM | HOP-92 > 100 µM | HCC 2998 > 100 µM | HT-29 > 100 µM | NCI-H23 26.2 µM | M19-MEL > 100 µM | OVCAR-8 32 µM | SW-620 > 100 µM | SNB-19 62.2 µM | LOX IMVI 31.6 µM | RXF 393 46.1 µM

O=S1(=O)c2ccccc2N=C(c2ccccc2Cl)CC1c1ccc(F)cc1 (stereo not given)
inactive: EKVX 18.1 µM | UACC-257 11.9 µM | A549 20 µM | SK-MEL-5 16.5 µM | HOP-92 17.7 µM | HCC 2998 14.2 µM | A498 17.5 µM | NCI-H23 17.1 µM | M19-MEL 17.7 µM | OVCAR-8 21.5 µM | SW-620 13.4 µM | SNB-19 16.8 µM | LOX IMVI 16.7 µM | RXF 393 6.68 µM

Cc1noc(C)c1C1=CCCCc2ccccc21
inactive: EKVX 63.4 µM | UACC-257 > 100 µM | A549 > 100 µM | SK-MEL-5 34.1 µM | HOP-92 26.5 µM | HCC 2998 > 100 µM | HT-29 > 100 µM | NCI-H23 > 100 µM | M19-MEL 90.2 µM | OVCAR-8 > 100 µM | SW-620 > 100 µM | SNB-19 > 100 µM | RXF 393 72.8 µM

CC1=Nn2c(nnc2-c2ccccc2Cl)NC(C)(C)C1
inactive: EKVX > 100 µM | A549 > 100 µM | SK-MEL-5 > 100 µM | HOP-92 > 100 µM | HCC 2998 > 100 µM | HT-29 > 100 µM | NCI-H23 > 100 µM | M19-MEL > 100 µM | OVCAR-8 > 100 µM | SW-620 6.25 µM | SNB-19 > 100 µM | LOX IMVI > 100 µM
